# Measured values reported in patent US12460243B2, “Mass spectrometry determination of the sensitivity or resistance of bacteria to an antibiotic” (priority 2019, dated 2025).
# Values joined by “and” are separate entries in the source; they are usually repeats but may differ in a detail not shown here. Equal entries are not always repeated. Bridge positions count the residues as written; N and C are the ends. Square brackets hold non-standard residues; d marks the D form. Peptide text beside a SMILES is read from it. * marks the point of attachment. Heptanoyl(6-Me) = CC(C)CCCCC(=O)*; Dab = NCC[C@H](N)C(=O)O
# Experiments:
# Format in all cases: cell-based
# [1] = system: Escherichia coli; test: MALDI-TOF detection of released characteristic proteins, 10 min at 50° C., filtration (examples V, VI); conditions: for Aire sous la courbe des pics observés, Protéine chaperonne de stress acide HdeB / Aire sous la courbe des pics observés, Protéine ribosomique 50S L29 / Aire sous la courbe des pics observés, Protéine ribosomique 50S L31 / Aire sous la courbe des pics observés, Protéine ribosomique 50S L33 / Aire sous la courbe des pics observés, SPIRAP (Stationary-Phase-Induced Ribosome-Associated Protein) / Ratio par protéine HdeB/Colistine / Ratio par protéine L29/Colistine / Ratio par protéine L31/Colistine / Ratio par protéine L33/Colistine / Ratio par protéine SIRAP/Colistine / Somme des ratios / sensitivity or resistance to colistin by MALDI-TOF: colistin 2.5 mg/ml, 10 min 50° C.; for classification by sum of the ratios against threshold: threshold 0.30
# Description: The tests were carried out using the following steps: • preparing a suspension of microorganism at 2 McF in water (suspension medium, bioMérieux reference 70700), • preparing a solution of colistin sulfate (Sigma reference C4461) at a concentration of 2× in pure water (taking into account the colistin titer indicated by the manufacturer).
# In the context of this example, the tests were carried out with the method of the present invention to determine the sensitivity or resistance of several bacteria of several strains such as in example V and comprising the following steps: • measuring the intensity of each peak observed, • finding a ratio between the sum of the intensities of the protein peaks of the microorganism and at least 1 peak of colistin. • determining the status, resistant or sensitive to colistin, as a function of the sum of the ratios obtained and of a threshold fixed for each species. • a resistant microorganism will have a low ratio and a sensitive microorganism will have a high ratio.
# Firstly, the same strains of E. coli (EC_S10, EC_S15, EC_R16, EC_R17), used previously, are studied and the proteins characteristic of the species E. coli are analyzed. They are the following proteins: the stationary-phase-induced ribosome-associated protein (SPIRAP), the acid stress chaperone HdeB and the 50S ribosomal proteins L29, L31 and L33.
# [2] = system: Escherichia coli; test: microdilution in broth (reference method)
# Description: (§1) So as to be able to evaluate the efficacy of the method according to the invention, the different strains were analyzed beforehand by microdilution in broth in order to determine their status (sensitive or resistant). This method is regarded as the reference method by the CLSI and EUCAST.
# [3] = system: Klebsiella pneumoniae; test: microdilution in broth (reference method)
# Description: as §1
# [4] = system: Pseudomonas aeruginosa; test: microdilution in broth (reference method); conditions: by microdilution in broth
# Description: as §1
# (§2) As before, the different strains were analyzed beforehand by microdilution in broth in order to determine their status (sensitive or resistant).
# [5] = system: Acinetobacter baumannii; test: microdilution in broth (reference method); conditions: by microdilution in broth
# Description: as §1, §2
compound,measurement,setting,value
CC(C)CCCCC(=O)N[C@@H](CCN)C(=O)N[C@H](C(=O)N[C@@H](CCN)C(=O)N[C@H]1CCNC(=O)[C@H]([C@@H](C)O)NC(=O)[C@H](CCN)NC(=O)[C@H](CCN)NC(=O)[C@H](CC(C)C)NC(=O)[C@@H](CC(C)C)NC(=O)[C@H](CCN)NC1=O)[C@@H](C)O [colistin] ({Heptanoyl(6-Me)}-[Dab]T[Dab][Dab][Dab][dL]L[Dab][Dab]T; lactam 4-C),"Aire sous la courbe des pics observés, Protéine chaperonne de stress acide HdeB",[1]; strain EC-R16,0.00 unité arbitraire
same,"Aire sous la courbe des pics observés, Protéine ribosomique 50S L29",[1]; strain EC-R16,0.00 unité arbitraire
same,"Aire sous la courbe des pics observés, Protéine ribosomique 50S L31",[1]; strain EC-R16,0.00 unité arbitraire
same,"Aire sous la courbe des pics observés, Protéine ribosomique 50S L33",[1]; strain EC-R16,0.00 unité arbitraire
same,"Aire sous la courbe des pics observés, SPIRAP (Stationary-Phase-Induced Ribosome-Associated Protein)",[1]; strain EC-R16,0.00 unité arbitraire
same,Ratio par protéine HdeB/Colistine,[1]; strain EC-R16,0.00
same,Ratio par protéine L29/Colistine,[1]; strain EC-R16,0.00
same,Ratio par protéine L31/Colistine,[1]; strain EC-R16,0.00
same,Ratio par protéine L33/Colistine,[1]; strain EC-R16,0.00
same,Ratio par protéine SIRAP/Colistine,[1]; strain EC-R16,0.00
same,Somme des ratios,[1]; strain EC-R16,0.00
same,classification by sum of the ratios against threshold,[1]; strain EC-R16,resistant (the strains whose sum of the ratios is strictly below 0.30 will be considered as resistant)
same,"Aire sous la courbe des pics observés, Protéine chaperonne de stress acide HdeB",[1]; strain EC-R17,0.00 unité arbitraire
same,"Aire sous la courbe des pics observés, Protéine ribosomique 50S L29",[1]; strain EC-R17,0.00 unité arbitraire
same,"Aire sous la courbe des pics observés, Protéine ribosomique 50S L31",[1]; strain EC-R17,0.00 unité arbitraire
same,"Aire sous la courbe des pics observés, Protéine ribosomique 50S L33",[1]; strain EC-R17,0.00 unité arbitraire
same,"Aire sous la courbe des pics observés, SPIRAP (Stationary-Phase-Induced Ribosome-Associated Protein)",[1]; strain EC-R17,0.00 unité arbitraire
same,Ratio par protéine HdeB/Colistine,[1]; strain EC-R17,0.00
same,Ratio par protéine L29/Colistine,[1]; strain EC-R17,0.00
same,Ratio par protéine L31/Colistine,[1]; strain EC-R17,0.00
same,Ratio par protéine L33/Colistine,[1]; strain EC-R17,0.00
same,Ratio par protéine SIRAP/Colistine,[1]; strain EC-R17,0.00
same,Somme des ratios,[1]; strain EC-R17,0.00
same,classification by sum of the ratios against threshold,[1]; strain EC-R17,resistant (the strains whose sum of the ratios is strictly below 0.30 will be considered as resistant)
same,Ratio par protéine HdeB/Colistine,[1]; strain EC-S10,0.15
same,Ratio par protéine L33/Colistine,[1]; strain EC-S10,0.15
same,Somme des ratios,[1]; strain EC-S10,0.30 and 0.39
same,classification by sum of the ratios against threshold,[1]; strain EC-S10,sensitive (the strains whose sum of the ratios is greater than or equal to 0.30 will be considered as sensitive)
same,"Aire sous la courbe des pics observés, Protéine chaperonne de stress acide HdeB",[1]; strain EC-S15,97.46 unité arbitraire and 60.9 unité arbitraire
same,"Aire sous la courbe des pics observés, Protéine ribosomique 50S L33",[1]; strain EC-S15,86.71 unité arbitraire and 68.12 unité arbitraire
same,"Aire sous la courbe des pics observés, SPIRAP (Stationary-Phase-Induced Ribosome-Associated Protein)",[1]; strain EC-S15,0.00 unité arbitraire
same,Ratio par protéine HdeB/Colistine,[1]; strain EC-S15,0.21
same,Ratio par protéine L29/Colistine,[1]; strain EC-S15,0.02 and 0.01
same,Ratio par protéine L31/Colistine,[1]; strain EC-S15,0.02 and 0.04
same,Ratio par protéine L33/Colistine,[1]; strain EC-S15,0.26 and 0.19
same,Somme des ratios,[1]; strain EC-S15,0.55 and 0.44
same,classification by sum of the ratios against threshold,[1]; strain EC-S15,sensitive (the strains whose sum of the ratios is greater than or equal to 0.30 will be considered as sensitive)
same,sensitivity or resistance to colistin by MALDI-TOF,[1]; strain EC_R16,resistant
same,sensitivity or resistance to colistin by MALDI-TOF,[1]; strain EC_R17,resistant
same,sensitivity or resistance to colistin by MALDI-TOF,[1]; strain EC_S10,sensitive
same,sensitivity or resistance to colistin by MALDI-TOF,[1]; strain EC_S15,sensitive
same,Statuts par microdilution,[2]; strain EC_R16 (mcr-1 plasmid),Résistante
same,Statuts par microdilution,[2]; strain EC_R17 (mcr-1 plasmid),Résistante
same,Statuts par microdilution,[2]; strain EC_S10,Sensible
same,Statuts par microdilution,[2]; strain EC_S15,Sensible
same,Statuts par microdilution,[3]; strain KP_R9 (chromosomal),Résistante
same,Statuts par microdilution,[3]; strain KP_S10,Sensible
same,Statuts par microdilution,[3]; strain KP_S15,Sensible
same,Statuts par microdilution,[3]; strain KR_R16 (chromosomal),Résistante
same,Sensible ou Résistante,[4]; strain PA_RE66,Résistante
same,Sensible ou Résistante,[4]; strain PA_RE68,Résistante
same,Sensible ou Résistante,[4]; strain PA_S062,Sensible
same,Sensible ou Résistante,[4]; strain PA_SE64,Sensible
same,Sensible ou Résistante,[5]; strain AB_R-E105,Résistante
same,Sensible ou Résistante,[5]; strain AB_S044,Sensible
same,Sensible ou Résistante,[5]; strain AB_S045,Sensible
same,Sensible ou Résistante,[5]; strain AB_S046,Sensible
